Assay results from ChEMBL document CHEMBL4118205, “Design, synthesis and biological evaluation of artemisinin derivatives containing fluorine atoms as anticancer agents” (Bioorg Med Chem Lett, 2018).
Calls of active or inactive are those of the source. The calls are words filed in the database; no cut-off is given here.

How the values were obtained:
MCF7 [1] = experiment: Cytotoxicity against human MCF7 cells assessed as reduction in cell viability after 72 hrs by MTT assay; format: functional, cell-based; settings: MCF7, 72 h
MCF7 [2] = experiment: Cell cycle arrest in human MCF7 cells assessed as accumulation at G2 phase at 10 uM after 48 hrs by propidium iodide staining based flow cytometry (reference value: 13.24%); format: functional
A549 = experiment: Cytotoxicity against human A549 cells assessed as reduction in cell viability after 72 hrs by MTT assay; format: functional, cell-based; settings: A549, 72 h
MCF7 [3] = experiment: Induction of apoptosis in human MCF7 cells assessed as viable cells at 20 uM after 48 hrs by Annexin-V FITC/propidium iodide staining based flow cytometry (reference value: 88.59%); format: functional; settings: MCF7, 48 h, read-out: Activity
MCF7 [4] = experiment: Induction of apoptosis in human MCF7 cells assessed as viable cells at 10 uM after 48 hrs by Annexin-V FITC/propidium iodide staining based flow cytometry (reference value: 88.59%); format: functional; settings: MCF7, 48 h, read-out: Activity
SH-SY5Y = experiment: Cytotoxicity against human SH-SY5Y cells assessed as reduction in cell viability after 72 hrs by MTT assay; format: functional, cell-based
MCF7 [5] = experiment: Cell cycle arrest in human MCF7 cells assessed as accumulation at G1 phase at 2.5 uM after 48 hrs by propidium iodide staining based flow cytometry (reference value: 45.21%); format: functional
MCF7 [6] = experiment: Induction of apoptosis in human MCF7 cells assessed as granular apoptotic body formation up to 20 uM after 48 hrs by Hoechst 33258 staining based fluorescence microscopic method; format: functional, cell-based
U-87 MG = experiment: Cytotoxicity against human U87 cells assessed as reduction in cell viability after 72 hrs by MTT assay; format: functional, cell-based, U-87MG ATCC
MCF7 [7] = experiment: Induction of apoptosis in human MCF7 cells assessed as late apoptotic cells at 10 uM after 48 hrs by Annexin-V FITC/propidium iodide staining based flow cytometry (reference value: 6.22%); format: functional
MCF7 [8] = experiment: Induction of apoptosis in human MCF7 cells assessed as necrotic cells at 1 uM after 48 hrs by Annexin-V FITC/propidium iodide staining based flow cytometry (reference value: 4.69%); format: functional
MCF7 [9] = experiment: Induction of apoptosis in human MCF7 cells assessed as necrotic cells at 2.5 uM after 48 hrs by Annexin-V FITC/propidium iodide staining based flow cytometry (reference value: 4.69%); format: functional
MCF7 [10] = experiment: Cell cycle arrest in human MCF7 cells assessed as accumulation at G1 phase at 1 uM after 48 hrs by propidium iodide staining based flow cytometry (reference value: 45.21%); format: functional
MCF7 [11] = experiment: Induction of apoptosis in human MCF7 cells assessed as viable cells at 2.5 uM after 48 hrs by Annexin-V FITC/propidium iodide staining based flow cytometry (reference value: 88.59%); format: functional; settings: MCF7, 48 h, read-out: Activity
MCF7 [12] = experiment: Cell cycle arrest in human MCF7 cells assessed as accumulation at G2 phase at 0.5 uM after 48 hrs by propidium iodide staining based flow cytometry (reference value: 13.24%); format: functional
MCF7 [13] = experiment: Cell cycle arrest in human MCF7 cells assessed as accumulation at G1 phase after 48 hrs by propidium iodide staining based flow cytometry; format: functional
MCF7 [14] = experiment: Induction of apoptosis in human MCF7 cells assessed as cell shrinkage up to 20 uM after 48 hrs by Hoechst 33258 staining based fluorescence microscopic method; format: functional
MCF7 [15] = experiment: Induction of apoptosis in human MCF7 cells assessed as morphological alteration up to 20 uM after 48 hrs by Hoechst 33258 staining based fluorescence microscopic method; format: functional, cell-based
MCF7 [16] = experiment: Cell cycle arrest in human MCF7 cells assessed as accumulation at G2 phase at 5 uM after 48 hrs by propidium iodide staining based flow cytometry (reference value: 13.24%); format: functional
MCF7 [17] = experiment: Cell cycle arrest in human MCF7 cells assessed as accumulation at G1 phase at 10 uM after 48 hrs by propidium iodide staining based flow cytometry (reference value: 45.21%); format: functional
MCF7 [18] = experiment: Induction of apoptosis in human MCF7 cells assessed as late apoptotic cells at 2.5 uM after 48 hrs by Annexin-V FITC/propidium iodide staining based flow cytometry (reference value: 6.22%); format: functional
MCF7 [19] = experiment: Induction of apoptosis in human MCF7 cells assessed as late apoptotic cells at 5 uM after 48 hrs by Annexin-V FITC/propidium iodide staining based flow cytometry (reference value: 6.22%); format: functional
MCF7 [20] = experiment: Cell cycle arrest in human MCF7 cells assessed as accumulation at S phase at 0.5 uM after 48 hrs by propidium iodide staining based flow cytometry (reference value: 41.55%); format: functional
MCF7 [21] = experiment: Induction of apoptosis in human MCF7 cells assessed as early apoptotic cells at 20 uM after 48 hrs by Annexin-V FITC/propidium iodide staining based flow cytometry (reference value: 0.50%); format: functional
MCF7 [22] = experiment: Induction of apoptosis in human MCF7 cells assessed as early apoptotic cells at 10 uM after 48 hrs by Annexin-V FITC/propidium iodide staining based flow cytometry (reference value: 0.50%); format: functional
MCF7 [23] = experiment: Induction of apoptosis in human MCF7 cells after 48 hrs by Annexin-V FITC/propidium iodide staining based flow cytometry; format: functional, cell-based
MCF7 [24] = experiment: Cell cycle arrest in human MCF7 cells assessed as accumulation at S phase at 2.5 uM after 48 hrs by propidium iodide staining based flow cytometry (reference value: 41.55%); format: functional
MCF7 [25] = experiment: Induction of apoptosis in human MCF7 cells assessed as viable cells at 1 uM after 48 hrs by Annexin-V FITC/propidium iodide staining based flow cytometry (reference value: 88.59%); format: functional; settings: MCF7, 48 h, read-out: Activity
MCF7 [26] = experiment: Cell cycle arrest in human MCF7 cells assessed as accumulation at G2 phase at 1 uM after 48 hrs by propidium iodide staining based flow cytometry (reference value: 13.24%); format: functional
MCF7 [27] = experiment: Cell cycle arrest in human MCF7 cells assessed as accumulation at S phase at 5 uM after 48 hrs by propidium iodide staining based flow cytometry (reference value: 41.55%); format: functional
A-375 = experiment: Cytotoxicity against human A375 cells assessed as reduction in cell viability after 72 hrs by MTT assay; format: functional, cell-based; settings: A-375, 72 h
MCF7 [28] = experiment: Cell cycle arrest in human MCF7 cells assessed as accumulation at G2 phase at 2.5 uM after 48 hrs by propidium iodide staining based flow cytometry (reference value: 13.24%); format: functional
MCF7 [29] = experiment: Induction of apoptosis in human MCF7 cells assessed as necrotic cells at 10 uM after 48 hrs by Annexin-V FITC/propidium iodide staining based flow cytometry (reference value: 4.69%); format: functional
MCF7 [30] = experiment: Cell cycle arrest in human MCF7 cells assessed as accumulation at G1 phase at 0.5 uM after 48 hrs by propidium iodide staining based flow cytometry (reference value: 45.21%); format: functional
MCF7 [31] = experiment: Induction of apoptosis in human MCF7 cells assessed as early apoptotic cells at 1 uM after 48 hrs by Annexin-V FITC/propidium iodide staining based flow cytometry (reference value: 0.50%); format: functional
MCF7 [32] = experiment: Induction of apoptosis in human MCF7 cells assessed as necrotic cells at 20 uM after 48 hrs by Annexin-V FITC/propidium iodide staining based flow cytometry (reference value: 4.69%); format: functional
MCF7 [33] = experiment: Induction of apoptosis in human MCF7 cells assessed as viable cells at 5 uM after 48 hrs by Annexin-V FITC/propidium iodide staining based flow cytometry (reference value: 88.59%); format: functional; settings: MCF7, 48 h, read-out: Activity

In the case of `C[C@H]1[C@H](N2CCN(C(=O)Nc3ccc(OC(F)(F)F)cc3)CC2)O[C@@H]2O[C@@]3(C)CC[C@H]4[C@H](C)CC[C@@H]1[C@@]24OO3`, the IC50 (MCF7 [1]) is reported as 2.1 µM, the Activity (MCF7 [2]) is reported as 7.3% and the IC50 (A549) is reported as 19.9 µM. It also gave a viability at 20 µM (MCF7 [3]) of 16.2%, a viability at 10 µM (MCF7 [4]) of 28.7% and an IC50 (SH-SY5Y) of 3.6 µM. For the same compound, the Activity (MCF7 [5]) was 64.46%, the Activity (MCF7 [6]) was “Active” and the IC50 (U-87 MG) was 19.7 µM. It also gave an Activity (MCF7 [7]) of 53.36%, an Activity (MCF7 [8]) of 8.1% and an Activity (MCF7 [9]) of 20.85%. The Activity (MCF7 [10]) was 56.57%, the viability at 2.5 µM (MCF7 [11]) was 59.5% and the Activity (MCF7 [12]) was 12.33%. For the same compound, the Activity (MCF7 [13]) was “Dose-dependent effect”, the Activity (MCF7 [14]) was “Active” and the Activity (MCF7 [15]) was “Active”. For the same compound, the Activity (MCF7 [16]) was 7.83%, the Activity (MCF7 [17]) was 83.5% and the Activity (MCF7 [18]) was 19.17%. It also gave an Activity (MCF7 [19]) of 33.62%, an Activity (MCF7 [20]) of 39.72% and an Activity (MCF7 [21]) of 4.78%. The Activity (MCF7 [22]) was 0.8%, the Activity (MCF7 [23]) was “Dose-dependent effect” and the Activity (MCF7 [24]) was 26.36%. The viability at 1 µM (MCF7 [25]) was 84.4%, the Activity (MCF7 [26]) was 10.09% and the Activity (MCF7 [27]) was 15.49%. The IC50 (A-375) was 3.4 µM, the Activity (MCF7 [28]) was 9.18% and the Activity (MCF7 [29]) was 17.18%. The Activity (MCF7 [30]) was 47.95%, the Activity (MCF7 [31]) was 0.48% and the Activity (MCF7 [32]) was 10.18%. It also gave a viability at 5 µM (MCF7 [33]) of 43.5%.
